Tests used:
Assay in all cases: Post-emergence foliar-applied weed control, greenhouse (Example I)
ECHCG = format: in vivo, Echinochloa crusgalli (L.) Beauv.
Text: (§1) Evaluation of Post-emergence Foliar-Applied Herbicidal Mixtures for Weed Control in Direct Seeded Rice
(§2) Seeds or nutlets of the desired test plant species were planted in a soil matrix prepared by mixing a loam or sandy loam soil (e.g., 28.6 percent silt, 18.8 percent clay, and 52.6 percent sand, with a pH of about 5.8 and an organic matter content of about 1.8 percent) and calcareous grit in an 80 to 20 ratio. The soil matrix was contained in plastic pots with a volume of 1 quart and a surface area of 83.6 square centimeters (cm^2). When required to ensure good germination and healthy plants, a fungicide treatment and/or other chemical or physical treatment was applied. The plants were grown for 8-22 days in a greenhouse with an approximate 14 h photoperiod which was maintained at about 29° C. during the day and 26° C. during the night. Nutrients (Peters Excel® 15-5-15 5-Ca 2-Mg and iron chelate) were applied in the irrigation solution as needed and water was added on a regular basis. Supplemental lighting was provided with overhead metal halide 1000-Watt lamps as necessary. The plants were employed for testing when they reached the first through fourth true leaf stage.
(§3) Treatments consisted of the acid or esters of 4-amino-3-chloro-5-fluoro-6-(4-chloro-2-fluoro-3-methoxy-phenyl)pyridine-2-carboxylic acid (Compound A), each formulated as an SC (suspension concentrate), and various herbicidal components alone and in combination. Forms of Compound A were applied on an acid equivalent basis.
(§4) Other herbicidal components were applied on an active ingredient basis and included 4-hydroxyphenyl pyruvate dioxygenase (HPPD)-inhibiting herbicides mesotrione formulated as Callisto®, sulcotrione formulated as Mikado®, pyrazolynate formulated as Sunbird® 10% GR, and benzobicyclon formulated as Benzobicyclon 3.5%.
(§5) Treatment requirements were calculated based upon the rates being tested, the concentration of active ingredient or acid equivalent in the formulation, and a 12 mL application volume at a rate of 187 L/ha.
(§6) For treatments comprised of formulated compounds, measured amounts of compounds were placed individually in 25 mL glass vials and diluted in a volume of 1.25% (v/v) Agri-Dex® crop oil concentrated to obtain 12× stock solutions. […] Application solutions were prepared by adding an appropriate amount of each stock solution (e.g., 1 mL) and diluted to the appropriate final concentrations with the addition of 10 mL of an aqueous mixture of 1.25% (v/v) crop oil concentrate so that the final spray solutions contained 1.25+/−0.05% (v/v) crop oil concentrate.
(§7) For treatments comprised of formulated and technical compounds, weighed amounts of the technical materials were placed individually in 25 mL glass vials and dissolved in a volume of 97:3 v/v acetone/DMSO to obtain 12× stock solutions, and measured amounts of the formulated compounds were placed individually in 25 mL glass vials and diluted in a volume of 1.5% (v/v) crop oil concentrate or water to obtain 12× stock solutions. […] Application solutions were prepared by adding an appropriate amount of each stock solution (e.g., 1 mL) and diluted to the appropriate final concentrations with the addition of an appropriate amount of an aqueous mixture of 1.5% (v/v) crop oil concentrate so that the final spray solutions contained 1.25% (v/v) crop oil concentrate. As required, additional water and/or 97:3 v/v acetone/DMSO was added to individual application solutions so that the final acetone and DMSO concentrations of the application solutions being compared were 8.1% and 0.25%, respectively.
(§8) All stock solutions and applications solutions were visually inspected for compound compatibility prior to application. Spray solutions were applied to the plant material with an overhead Mandel track sprayer equipped with a 8002E nozzles calibrated to deliver 187 L/ha over an application area of 0.503 m^2 at a spray height of 18 to 20 inches (46 to 50 cm) above average plant canopy height. […]

SCPJU = format: in vivo, Schoenoplectus juncoides (Roxb.) Palla
Text: as §1, §2, §3, §4, §5, §6, §7, §8

CYPIR = format: in vivo, Cyperus iria L.
Text: as §1, §2, §3, §4, §5, §6, §7, §8

Compound | Visual Weed Control (%) - 20 DAA ECHCG Obs (ECHCG; 4.38 gae/ha) | Visual Weed Control (%) - 22 DAA ECHCG Obs (ECHCG; 5.3 gae/ha) | Visual Weed Control (%) - 20 DAA ECHCG Obs (ECHCG; 8.75 gae/ha) | Visual Weed Control (%) - 22 DAA ECHCG Obs (ECHCG; 10.6 gae/ha) | Visual Weed Control (%) - 22 DAA SCPJU Obs (SCPJU; 5.3 gae/ha) | Visual Weed Control (%) - 22 DAA SCPJU Obs (SCPJU; 10.6 gae/ha) | Visual Weed Control (%) - 20 DAA CYPIR Obs (CYPIR; 4.38 gae/ha) | Visual Weed Control (%) - 20 DAA CYPIR Obs (CYPIR; 8.75 gae/ha) | Visual Weed Control (%) - 20 DAA CYPIR Obs (CYPIR; 17.5 gae/ha) | Visual Weed Control (%) - 22 DAA ECHCG Obs (ECHCG; 4.38 gae/ha) | Visual Weed Control (%) - 22 DAA ECHCG Obs (ECHCG; 8 gae/ha) | Visual Weed Control (%) - 22 DAA ECHCG Obs (ECHCG; 8.75 gae/ha) | Visual Weed Control (%) - 22 DAA ECHCG Obs (ECHCG; 16 gae/ha) | Visual Weed Control (%) - 22 DAA ECHCG Obs (ECHCG; 32 gae/ha) | Visual Weed Control (%) - 20 DAA SCPJU Obs (SCPJU; 4.38 gae/ha) | Visual Weed Control (%) - 20 DAA SCPJU Obs (SCPJU; 8.75 gae/ha) | Visual Weed Control (%) - 22 DAA CYPIR Obs (CYPIR; 4.38 gae/ha) | Visual Weed Control (%) - 22 DAA CYPIR Obs (CYPIR; 8.75 gae/ha)
COc1c(Cl)ccc(-c2nc(C(=O)O)c(Cl)c(N)c2F)c1F [Compound A Acid, 4-amino-3-chloro-6-(4-chloro-2-fluoro-3-methoxyphenyl)-5-fluoropyridine-2-carboxylic acid] | 25% | 65% | 80% | 55% | 60% | 75% | 75% | 90% | 90% | – | – | – | – | – | – | – | – | –
COc1c(Cl)ccc(-c2nc(C(=O)OCc3ccccc3)c(Cl)c(N)c2F)c1F [Compound A Benzyl Ester, benzyl ester of 4-amino-3-chloro-5-fluoro-6-(4-chloro-2-fluoro-3-methoxy-phenyl)pyridine-2-carboxylic acid] | 40% | – | – | – | – | – | – | – | – | 40% | 35% | 60% | 65% | 80% | 30% | 60% | 10% | 65%

— patent US8841233B2, “Herbicidal compositions comprising 4-amino-3-chloro-5-fluoro-6-(4-chloro-2-fluoro-3-methoxyphenyl) pyridine-2-carboxylic acid or a derivative thereof and 4-hydroxyphenyl-pyruvate dioxygenase (HPPD) inhibitors” (Dow Agrosciences LLC, priority 2012, dated 2014)
